{"source": "patent US20250387385A1", "about": "“TREATMENT FOR GLOMERULAR DISEASES” (ZYDUS Lifesciences Limited, priority 2022, published 2025)", "key": {"HIF": {"test_system": "HIF", "conditions": "animal model of anemia; reference 10; cited from earlier work"}, "BSA treated mice": {"test_system": "BSA treated mice", "assay": "Cationic bovine serum albumin (cBSA) induced nephritis in male C57 mice", "assay_type": "in vivo", "conditions": "reduction against BSA treated mice, 24 h urine on 11th day, oral, 10 days, formula (Ia) 15 mg/kg, Iptacopan 20 mg/kg BID", "protocol": "Male C57 mice were treated with bovine serum albumin (BSA) at 2, 4, 6, 8 and 10 mg/kg on day 1, 2, 3, 4, and 5 days by intraperitoneal route, respectively. The BSA at 10 mg/kg was treated for next 5 days. On the same day, mice were treated with either vehicle/compound of formula (Ia) (15 mg/kg) and combination of compound of formula (Ia) (15 mg/kg) and Iptacopan (20 mg/kg, BID) by oral route and continued for 10 days. On 11th day mice kept in metabolic cage and 24 h urine protein excretion was measured."}, "hemoglobin": {"test_system": "hemoglobin", "conditions": "clinical trials; reference 11; cited from earlier work"}, "ischemia condition": {"test_system": "ischemia condition", "conditions": "reference 12, cited from earlier work"}, "doxorubicin treated mice": {"test_system": "doxorubicin treated mice", "assay": "Doxorubicin-induced glomerulosclerosis in male Balb/c mice", "assay_type": "in vivo", "conditions": "reduction against doxorubicin treated animals, 24 h urine, oral, two weeks, formula (Ia) 15 mg/kg, Fimasartan 15 mg/kg", "protocol": "Male Balb/c mice were treated with doxorubicin (10 mg/kg, IV). After 5 weeks of treatment, mice were randomized based on protein excretion urine into four groups: Doxorubicin, compound of formula (Ia) (15 mg/kg) and combination of compound of formula (Ia) (15 mg/kg) and Fimasartan (15 mg/kg) by oral route. The treatment continued for two weeks. These mice kept in metabolic cage and 24 h urine protein excretion was measured."}, "LPS treated mice": {"test_system": "LPS treated mice", "assay": "LPS-induced nephritis in C57 mice", "assay_type": "in vivo", "conditions": "serum 24 h after LPS, oral, formula (Ia) 15 mg/kg, Iptacopan 20 mg/kg twice a day; for Serum creatinine (reduction): reduction against LPS treated mice; for Serum urea (reduction): reduction compared with LPS treated mice", "protocol": "Single dose of lipopolysachharide (LPS)-induced acute nephritis was generated in C57 mice and the effect of compound of formula (Ia) and combination as shown below. Male C57 mice were treated with vehicle/compound of formula (Ia) (15 mg/kg) and combination of compound of formula (Ia) (15 mg/kg) and Iptacopan (20 mg/kg, twice a day) by oral route. These mice were bled after 24 h of LPS treatment and serum was obtained. The creatinine and urea levels were measured in the serum."}, "5/6 nephrectomized rat": {"test_system": "5/6 nephrectomized rat", "assay": "5/6 nephrectomy induced renal dysfunction in male SD rats", "assay_type": "in vivo", "conditions": "5/6 nephrectomized SD rats, 15 mg/kg for four weeks", "protocol": "Male SD rats will be operated for 5/6 nephrectomy to induce the focal segmental glomerulosclerosis. After a week of recovery, animals were treated with compound of formula (Ia). The randomized rats were treated with compound of formula (Ia) (15 mg/kg) for four weeks. At the end of treatment serum creatinine, serum urea and urine microalbumin was measured."}, "db/db mice": {"test_system": "db/db mice", "assay": "Diabetes induced renal dysfunction in db/db mice", "assay_type": "in vivo", "conditions": "one kidney removed, 15 mg/kg for eight weeks; for Urine microalbumin (reduction): reduction against diabetic mice", "protocol": "For inducing diabetes-induced renal dysfunction, one kidney was removed from male db/db mice and they were treated with compound of formula (Ia) and combination for 8 weeks. At the end of treatment, renal dysfunction was estimated. Histological change in renal disease was also accessed with biochemical changes in serum and urine. Male db/db mice were randomized and were treated with compound of formula (Ia) (15 mg/kg) for eight weeks. At the end of treatment serum creatinine, serum urea and urine microalbumin was measured."}, "[1]": {"conditions": "listed as Compound of formula (Ia)"}, "[2]": {"conditions": "listed as compound of formula (Ia)"}}}
{"smiles": "O=C(O)CNC(=O)c1c(O)c2ccccc2n(OCC2CC2)c1=O", "note": "[Formula (Ia), Desidustat]", "values": [{"measurement": "HIF stabilisation", "setting": "HIF", "value": "stabilizes HIF"}, {"measurement": "erythropoiesis", "setting": "HIF", "value": "induces erythropoiesis"}, {"measurement": "Urine total protein (reduction)", "setting": "BSA treated mice", "value": "40.1 ± 7.6", "unit": "%"}, {"measurement": "Urine total protein (reduction)", "setting": "BSA treated mice; [1]", "value": "40.1±7.6", "unit": "%"}, {"measurement": "hemoglobin", "setting": "hemoglobin", "value": "improves hemoglobin"}, {"measurement": "IL-1β levels", "setting": "ischemia condition; ischemia condition", "value": "reduced"}, {"measurement": "IL-6 levels", "setting": "ischemia condition; ischemia condition", "value": "reduced"}, {"measurement": "MDA", "setting": "ischemia condition; oxidative stress", "value": "decreases"}, {"measurement": "SOD", "setting": "ischemia condition; oxidative stress", "value": "decreases"}, {"measurement": "Urine total protein (reduction)", "setting": "doxorubicin treated mice", "value": "47.8 ± 5.8", "unit": "%"}, {"measurement": "Urine total protein (reduction)", "setting": "doxorubicin treated mice; [2]", "value": "47.8±5.8", "unit": "%"}, {"measurement": "Serum creatinine (reduction)", "setting": "LPS treated mice", "value": "34.1 ± 5.2", "unit": "%"}, {"measurement": "Serum creatinine (reduction)", "setting": "LPS treated mice; [2]", "value": "34.1±5.2", "unit": "%"}, {"measurement": "Serum urea (reduction)", "setting": "LPS treated mice", "value": "44.9 ± 5.2", "unit": "%"}, {"measurement": "Serum urea (reduction)", "setting": "LPS treated mice; [2]", "value": "44.9 ± 5.2", "unit": "%"}, {"measurement": "Microalbumin (reduction of urinary excretion)", "setting": "5/6 nephrectomized rat", "value": "35.9 ± 12.0", "unit": "%"}, {"measurement": "Serum creatinine (reduction)", "setting": "5/6 nephrectomized rat", "value": "14.9 ± 3.2", "unit": "%"}, {"measurement": "Serum urea (reduction)", "setting": "5/6 nephrectomized rat", "value": "15.9 ± 8.8", "unit": "%"}, {"measurement": "Microalbumin (reduction of urinary excretion)", "setting": "5/6 nephrectomized rat; [1]", "value": "35.9±12.0", "unit": "%"}, {"measurement": "Serum creatinine (reduction)", "setting": "5/6 nephrectomized rat; [1]", "value": "14.9±3.2", "unit": "%"}, {"measurement": "Serum urea (reduction)", "setting": "5/6 nephrectomized rat; [1]", "value": "15.9±8.8", "unit": "%"}, {"measurement": "Serum creatinine (reduction)", "setting": "db/db mice", "value": "28.4 ± 4.4", "unit": "%"}, {"measurement": "Serum urea (reduction)", "setting": "db/db mice", "value": "25.8 ± 4.8", "unit": "%"}, {"measurement": "Serum creatinine (reduction)", "setting": "db/db mice; [1]", "value": "28.4±4.4", "unit": "%"}, {"measurement": "Serum urea (reduction)", "setting": "db/db mice; [1]", "value": "25.8±4.8", "unit": "%"}, {"measurement": "Urine microalbumin (reduction)", "setting": "db/db mice", "value": "50.2 ± 3.2", "unit": "%"}, {"measurement": "Urine microalbumin (reduction)", "setting": "db/db mice; [1]", "value": "50.2±3.2", "unit": "%"}]}
